Key:
[1] = molecular target: T1, L(−)-carnitine dehydratase (Escherichia coli, UniProt P31572); assay: L(−)-carnitine dehydratase activation test (formation of L(−)-carnitine from crotonobetaine); type: biochemical; conditions: 0.002 μmol cofactor, 10 min at 37° C.
T1 construct: partly concentrated L(−)-carnitine dehydratase (without factor F showing any activity)
Procedure: (§1) For the L(−)-carnitine dehydratase activation test according to the invention purified gamma-butyrobetainyl-coenzyme A is supplied (preferably 1-10 nmol) on potassium phosphate buffer (10 mM pH 7.5), which is added with partly concentrated L(−)-carnitine dehydratase (without factor F showing any activity) and the crotonobetaine solution to be metabolized (1M) and incubated at 37° C.
(§2) The L(−)-carnitine formed was subsequently tested with an optical test with the aid of carnitine acetyltransferase (according to BERGMEYER (1970)). A similar procedure was adopted in the racemization reaction test, in which a solution of D(+)-carnitine (1M) was added in the place of crotonobetaine. The L(−)-carnitine formed can be determined exactly by prior testing of the system with known solutions of L(−)-carnitine.
as §1, with “crotonobetainyl-coenzyme” for “gamma-butyrobetainyl-coenzyme”
Formation of L(−)-carnitine from crotonobetaine by means of concentrated L(−)-carnitine dehydratase and gamma-butyrobetainyl-coenzyme A (BB-CoA) after 10 minutes' incubation at 37° C. on potassium phosphate buffer (10 mM, pH 7.5).
Formation of L(−)-carnitine from crotonobetaine by means of concentrated L(−)-carnitine dehydratase and crotonobetainyl-coenzyme A (CB-CoA) after 10 minutes' incubation at 37° C. on potassium phosphate buffer (10 mM, pH 7.5).

[2] = system: system of racemization of carnitine; assay: Racemization reaction test (formation of L(−)-carnitine from D(+)-carnitine); type: biochemical; conditions: 0.002 μmol cofactor, 10 min at 37° C.
Procedure: as §2
Formation of L(−)-carnitine from D(+)-carnitine by means of a system of racemization of carnitine and gamma-butyrobetainyl-coenzyme A (BB-CoA) after 10 minutes' incubation at 37° C. on potassium phosphate buffer (10 mM, pH 7.5).
Formation of L(−)-carnitine from D(+)-carnitine via a system of racemization of carnitine and crotonobetainyl-coenzyme A (CB-CoA) after 10 minutes' incubation at 37° C. on potassium phosphate buffer (10 mM, pH 7.5).

pH stability for 1 h = type: physicochemical; conditions: pH range
Procedure: (§3) The gamma-butyrobetainyl chloride thus obtained is suitable for the synthesis of gamma-butyrobetainyl-coenzyme A. Coenzyme A is first suspended in an iced mixture of 1M of sodium bicarbonate at pH 7.5-9.5 (preferably pH 8.5). To this is added a definite amount of gamma-butyrobetainyl chloride (preferably in excess) keeping the pH values under control. After 15-30 minutes the reaction is complete. The formation of gamma-butyrobetainyl-coenzyme A is checked by HPLC (Spherisorb, C18 column) and finally subjected to a further purification stage (ion-exchange chromatography on DOWEX 50). The purity is checked again by HPLC (Spherisorb, C18 column). The physicochemical properties were determined on the washed product (see following table).
as §3, with “crotonobetainyl” for “gamma-butyrobetainyl”, “crotonobetainyl-coenzyme” for “gamma-butyrobetainyl-coenzyme”, “The purity is checked again by HPLC (Spherisorb, C18 column).” left out

[3] = Temperature stability (1 h); type: physicochemical
Procedure: as §3
as §3, with “crotonobetainyl” for “gamma-butyrobetainyl”, “crotonobetainyl-coenzyme” for “gamma-butyrobetainyl-coenzyme”

Solubility = type: physicochemical; conditions: solvent in which soluble
Procedure: as §3
as §3, with “crotonobetainyl” for “gamma-butyrobetainyl”, “crotonobetainyl-coenzyme” for “gamma-butyrobetainyl-coenzyme”, “The purity is checked again by HPLC (Spherisorb, C18 column).” left out

[4] = 0 μg L-carnitine dehydratase (no enzyme), 20 μmol crotonobetaine, pH 7.5
[5] = 10 μg L-carnitine dehydratase, 0 μmol crotonobetaine (no substrate), pH 7.5
[6] = 10 μg L-carnitine dehydratase, 20 μmol crotonobetaine, potassium phosphate buffer 10 mM pH 7.5
[7] = 0 μg carnitine racemization system, 20 μmol substrate, pH 7.5
[8] = 30 μg carnitine racemization system, 0 μmol substrate, pH 7.5
[9] = 30 μg carnitine racemization system, 20 μmol substrate (head: Crotonobetaine, text: D(+)-carnitine), potassium phosphate buffer 10 mM pH 7.5

T1 sequence (P31572 whole entry): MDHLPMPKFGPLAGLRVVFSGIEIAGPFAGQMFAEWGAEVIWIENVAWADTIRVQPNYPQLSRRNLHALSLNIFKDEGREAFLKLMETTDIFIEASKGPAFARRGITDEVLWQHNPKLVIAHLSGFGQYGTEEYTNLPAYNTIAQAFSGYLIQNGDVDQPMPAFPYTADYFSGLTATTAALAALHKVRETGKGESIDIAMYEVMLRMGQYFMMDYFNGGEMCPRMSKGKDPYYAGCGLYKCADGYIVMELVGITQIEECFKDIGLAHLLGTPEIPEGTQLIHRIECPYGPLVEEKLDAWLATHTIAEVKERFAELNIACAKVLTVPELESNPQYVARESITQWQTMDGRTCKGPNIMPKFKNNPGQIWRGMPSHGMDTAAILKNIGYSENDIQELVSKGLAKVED

## CC(C)(COP(=O)(O)OP(=O)(O)OC[C@H]1O[C@@H](n2cnc3c(N)ncnc32)[C@H](O)[C@@H]1OP(=O)(O)O)[C@@H](O)C(=O)NCCC(=O)NCCSC(=O)CCC[N+](C)(C)C [BB-CoA, gamma-butyrobetainyl-coenzyme A]
[1]; [4]
  Carnitine synthesis: 0 µmol
[1]; [5]
  Carnitine synthesis: 0 µmol
[1]; [6]
  Carnitine synthesis: 0.18 µmol
[2]; [7]
  Carnitine synthesis: 0 µmol
[2]; [8]
  Carnitine synthesis: 0 µmol
[2]; [9]
  Carnitine synthesis: 0.162 µmol
pH stability for 1 h
  pH stability for 1 h: 3-10
[3]; 0° C. to 90° C.
  Temperature stability (1 h): >90%: 0 °C to 90 °C
[3]; −20° C.
  Temperature stability (1 h): 100%: −20 °C
Solubility
  Solubility: water

## CC(C)(COP(=O)(O)OP(=O)(O)OC[C@H]1O[C@@H](n2cnc3c(N)ncnc32)[C@H](O)[C@@H]1OP(=O)(O)O)[C@@H](O)C(=O)NCCC(=O)NCCSC(=O)/C=C/C[N+](C)(C)C [CB-CoA, crotonobetainyl-coenzyme A]
[1]; [4]
  Carnitine synthesis: 0 µmol
[1]; [5]
  Carnitine synthesis: 0 µmol
[1]; [6]
  Carnitine synthesis: 0.271 µmol
[2]; [7]
  Carnitine synthesis: 0 µmol
[2]; [8]
  Carnitine synthesis: 0 µmol
[2]; [9]
  Carnitine synthesis: 0.243 µmol
pH stability for 1 h
  pH stability for 1 h: 2-10
[3]; 20° C. to 60° C.
  Temperature stability (1 h): 75%: 20 °C to 60 °C
[3]; −20° C. to 0° C.
  Temperature stability (1 h): 100%: −20 °C to 0 °C
Solubility
  Solubility: water

Source: patent US20020146787A1, “Coenzymes useful for the synthesis of L-carnitine” (Sigma-Tau Industrie Farmaceutiche Riunite S.p.A, priority 1998, published 2002)
